The values that follow come from ChEMBL document CHEMBL1151273, “Cytotoxic furostanol saponins and a megastigmane glucoside from tribulus parvispinus” (J Nat Prod, 2005).

For assay [1], the system named is U-937. Nature of the assay: Cytotoxicity against human U937 cells after 48 hrs by WST1 test. The settings on record: U-937, 48 h. Format: functional, cell-based. Background: Tetrazolium dyes change colour on reduction, which living cells bring about.
In a further assay the test system is MCF7. Nature of the assay: Cytotoxicity against human MCF7 cells after 48 hrs by acid phosphatase method. The settings on record: MCF7, 48 h. It is filed as functional, cell-based.
In assay [2] the test system is U-937. Kind of assay: Induction of apoptosis in human U937 cells assessed as total LDH activity at IC50 by spectrophotometric method. It is filed as functional.
For assay [3], the system named is U-937. Nature of the assay: Induction of apoptosis in human U937 cells assessed as hypodiploid region at IC50 measured by propidium iodide incorporation by flow cytometry. Format: functional. On the technique in general: In flow cytometry, cells or beads pass a laser one at a time.
In another assay the test system is HepG2. Nature of the assay: Cytotoxicity against human HepG2 cells after 48 hrs by acid phosphatase method. Format: functional, cell-based. Particulars: HepG2, 48 h.
Assay [4] deals with U-937. Kind of assay: Cytotoxicity against human U937 cells assessed as reduction of proliferation at 0.1 uM after 48 hrs. Format: functional, cell-based.
The test system of assay [5] is U-937. Nature of the assay: Cytotoxicity against human U937 cells assessed as reduction of proliferation at 0.1 uM after 24 hrs. It is filed as functional, cell-based.
The test system of assay [6] is U-937. Kind of assay: Cytotoxicity against human U937 cells assessed as reduction of proliferation at 0.5 uM after 24 hrs. It is filed as functional, cell-based.

Activity calls are given as the source filed them. The calls are words filed in the database; no cut-off is given here.

`CO[C@]1(CC[C@@H](C)CO[C@@H]2O[C@H](CO)[C@@H](O)[C@H](O)[C@H]2O)O[C@H]2C[C@H]3[C@@H]4CC[C@H]5C[C@@H](O[C@@H]6O[C@H](CO)[C@H](O[C@@H]7O[C@H](CO)[C@@H](O)[C@H](O[C@@H]8OC[C@@H](O)[C@H](O)[C@H]8O)[C@H]7O[C@@H]7O[C@H](CO)[C@H](O)[C@H](O)[C@H]7O)[C@H](O)[C@H]6O)[C@H](O)C[C@]5(C)[C@H]4CC[C@]3(C)[C@H]2[C@@H]1C` [22-O-METHYLPARVISPINOSIDE A]: the half-inhibitory concentration (IC50) stood at 1 µM in the assay with U-937 [1], 50 µM in the assay on MCF7 and 30 µM in the assay with HepG2. The values for the Activity in the assay with U-937 [2] and in the assay on U-937 [3] were 38% and 9%, respectively.

Turning to `C[C@@H]1CC[C@@]2(OC1)O[C@H]1C[C@H]3[C@@H]4CC[C@H]5C[C@@H](O[C@@H]6O[C@H](CO)[C@H](O[C@@H]7O[C@H](CO)[C@@H](O)[C@H](O[C@@H]8OC[C@@H](O)[C@H](O)[C@H]8O)[C@H]7O[C@@H]7O[C@H](CO)[C@H](O)[C@H](O)[C@H]7O)[C@H](O)[C@H]6O)CC[C@]5(C)[C@H]4CC[C@]3(C)[C@H]1[C@@H]2C` [GITONIN], the outcome with U-937 [4] and with U-937 [5] was Active. For the same compound, the half-maximal inhibitory concentration (IC50) is 0.1 µM in the assay on U-937 [1], 3 µM in the assay on MCF7 and 3 µM with HepG2. Moreover, the figures for the Activity with U-937 [2] and in the assay with U-937 [3] were 25% and 20%, respectively.

Consider `Oc1ccc(/C=C/c2cc(O)cc(O)c2)cc1` [RESVERATROL], for which the IC50 turned out to be 17 µM with U-937 [1], 100 µM with MCF7 and 50 µM with HepG2.

For `CO[C@]1(CC[C@@H](C)CO[C@@H]2O[C@H](CO)[C@@H](O)[C@H](O)[C@H]2O)O[C@H]2C[C@H]3[C@@H]4CC[C@H]5C[C@@H](O[C@@H]6O[C@H](CO)[C@H](O[C@@H]7O[C@H](CO)[C@@H](O)[C@H](O[C@@H]8OC[C@@H](O)[C@H](O)[C@H]8O)[C@H]7O[C@@H]7O[C@H](CO)[C@H](O)[C@H](O)[C@H]7O)[C@H](O)[C@H]6O)CC[C@]5(C)[C@H]4CC[C@]3(C)[C@H]2[C@@H]1C` [22-O-METHYLPARVISPINOSIDE B], the IC50 came to 2 µM with U-937 [1], 40 µM in the assay on MCF7 and 30 µM with HepG2. For the same compound, the results for the Activity in the assay on U-937 [2] and in the assay with U-937 [3] were 50% and 3%, respectively.

Consider `C[C@H](CC[C@@]1(O)O[C@H]2C[C@H]3[C@@H]4CC[C@H]5C[C@@H](O[C@@H]6O[C@H](CO)[C@H](O[C@@H]7O[C@H](CO)[C@@H](O)[C@H](O[C@@H]8OC[C@@H](O)[C@H](O)[C@H]8O)[C@H]7O[C@@H]7O[C@H](CO)[C@H](O)[C@H](O)[C@H]7O)[C@H](O)[C@H]6O)CC[C@]5(C)[C@H]4CC[C@]3(C)[C@H]2[C@@H]1C)CO[C@@H]1O[C@H](CO)[C@@H](O)[C@H](O)[C@H]1O` [PARVISPINOSIDE B], for which the result with U-937 [4] and in the assay with U-937 [6] was Active. Moreover, the concentration for half-maximal inhibition (IC50) in the assay with U-937 [1] is 0.5 µM; with MCF7, 94 µM; with HepG2, greater than 100 µM. Moreover, the values for the Activity with U-937 [2] and with U-937 [3] were 27% and 26%, respectively.

On to `CC1=CC(=O)CC(C)(C)[C@@]1(O)/C=C/C(O)CO[C@@H]1O[C@H](CO)[C@@H](O)[C@H](O)[C@H]1O` (stereo not given in full) [PARVISPINOSIDE C], for which the IC50 with U-937 [1] is 15 µM; with MCF7, 80 µM; in the assay on HepG2, greater than 100 µM.

With `C[C@H](CC[C@@]1(O)O[C@H]2C[C@H]3[C@@H]4CC[C@H]5C[C@@H](O[C@@H]6O[C@H](CO)[C@H](O[C@@H]7O[C@H](CO)[C@@H](O)[C@H](O[C@@H]8OC[C@@H](O)[C@H](O)[C@H]8O)[C@H]7O[C@@H]7O[C@H](CO)[C@H](O)[C@H](O)[C@H]7O)[C@H](O)[C@H]6O)[C@H](O)C[C@]5(C)[C@H]4CC[C@]3(C)[C@H]2[C@@H]1C)CO[C@@H]1O[C@H](CO)[C@@H](O)[C@H](O)[C@H]1O` [PARVISPINOSIDE A], the 50% inhibitory concentration (IC50) in the assay with U-937 [1] was 30 µM; in the assay on MCF7, greater than 100 µM; in the assay on HepG2, greater than 100 µM. Besides, the Activity turned out to be 28% in the assay on U-937 [2] and 32% in the assay on U-937 [3].

Usually IC50 stands for the concentration at which inhibition is half-maximal. A low value points to greater potency.
